Patent US6596718B1, “7-Morpholin-4yl-benzothiazole amide derivatives” (Hoffmann-La Roche Inc., priority 2001, dated 2003)

Legend:
[1] = target: T1, human adenosine A1 receptor (Homo sapiens, UniProt P30542); experiment: [3H]-DPCPX binding assay, human adenosine A1 receptor (SPA, CHO cell membranes); conditions: recombinant human A1 in CHO membranes; [3H]-DPCPX 0.6 nM; Ki by Cheng-Prussoff; read-out: hA1 (pKi) (converted)
T1 construct: expressed in transfected cells; host or cells: CHO cells, Semliki Forest virus expression system; membrane preparation
T1 sequence (P30542 1-326): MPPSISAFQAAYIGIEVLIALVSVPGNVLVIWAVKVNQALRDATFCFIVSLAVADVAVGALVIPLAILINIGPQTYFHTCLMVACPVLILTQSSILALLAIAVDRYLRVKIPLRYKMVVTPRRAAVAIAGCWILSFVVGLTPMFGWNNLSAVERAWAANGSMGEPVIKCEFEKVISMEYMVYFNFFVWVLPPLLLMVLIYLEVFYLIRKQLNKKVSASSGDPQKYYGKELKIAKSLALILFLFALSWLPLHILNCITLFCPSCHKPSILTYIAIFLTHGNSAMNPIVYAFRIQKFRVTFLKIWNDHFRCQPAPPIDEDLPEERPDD
Procedure: Human Adenosine A1 Receptor
(§1) The human adenosine A1 receptor was recombinantly expressed in chinese hamster ovary (CHO) cells using the semlilki forest virus expression system. Cells were harvested, washed twice by centrifugation, homogenized and again washed by centrifugation. The final washed membrane pellet was suspended in a Tris (50 mM) buffer containing 120 mM NaCl, 5 mM KCl, 2 mM CaCl2 and 10 mM MgCl2 (pH 7.4) (buffer A). The [^3H]-DPCPX (([propyl-^3H]8-cyclopentyl-1,3-dipropyxanthine); 0.6 nM) binding assay was carried out in 96-well plates in the presence of 2.5 μg of membrane protein, 0.5 mg of Ysi-poly-l-lysine SPA beads and 0.1 U adenosine deaminase in a final volume of 200 μl of buffer A. Non-specific binding was defined using xanthine amine congener (XAC; 2 μM). Compounds were tested at 10 concentrations from 10 μM-0.3 nM. All assays were conducted in duplicate and repeated at least two times. Assay plates were incubated for 1 hour at room temperature before centrifugation and then bound ligand determined using a Packard Topcount scintillation counter. IC50, the concentration where 50% of the […] binding is displaced, values were calculated using a non-linear curve fitting program and ki values calculated using the Cheng-Prussoff equation.

[2] = target: T2, human adenosine A2A receptor (Homo sapiens, UniProt P29274); experiment: [3H]-SCH-58261 binding assay, human adenosine A2A receptor (SPA, CHO cell membranes); conditions: recombinant human A2A in CHO membranes; [3H]-SCH-58261 1 nM; Ki by Cheng-Prussoff; read-out: hA2 (pKi) (converted)
T2 construct: expressed in transfected cells; host or cells: CHO cells, Semliki Forest virus expression system; membrane preparation
Procedure: Human Adenosine A2A Receptor
as §1, with “adenosine A2A” for “adenosine A1”, “(buffer A)” for “(buffer A).”, “The [^3H]-SCH-58261 (Dionisotti et al., 1997, Br J Pharmacol 121, 353; 1” for “The [^3H]-DPCPX (([propyl-^3H]8-cyclopentyl-1,3-dipropyxanthine); 0.6”, “counter. IC50 values,” for “counter. IC50,”, “displaced,” for “displaced, values”, “and Ki” for “and ki”

T2 sequence (P29274 whole entry): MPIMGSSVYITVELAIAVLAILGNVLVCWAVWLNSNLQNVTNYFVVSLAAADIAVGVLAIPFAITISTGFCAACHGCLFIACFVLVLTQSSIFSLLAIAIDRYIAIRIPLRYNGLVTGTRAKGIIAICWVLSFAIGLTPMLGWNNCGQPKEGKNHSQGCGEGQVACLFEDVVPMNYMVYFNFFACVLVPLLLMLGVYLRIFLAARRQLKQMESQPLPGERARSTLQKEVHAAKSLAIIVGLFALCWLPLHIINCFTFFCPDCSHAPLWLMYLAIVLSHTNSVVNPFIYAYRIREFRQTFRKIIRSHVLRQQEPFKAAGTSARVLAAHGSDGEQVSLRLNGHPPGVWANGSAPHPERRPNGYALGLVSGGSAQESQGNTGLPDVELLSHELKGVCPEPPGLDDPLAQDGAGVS

Structure (SMILES)	Ki [1] [nM]	Ki [2] [nM]	melting point [°C]
COc1ccc(N2CCOCC2)c2sc(C(=O)NCCc3cccs3)nc12 [Example 22, 4-Methoxy-7-morpholin-4-yl-benzothiazole-2-carboxylic acid (2-thiophen-2-yl-ethyl)-amide]	1260	3.98	120 to 121
COc1ccc(N2CCOCC2)c2sc(C(=O)Nc3cccnc3)nc12 [Example 9, 4-Methoxy-7-morpholin-4-yl-benzothiazole-2-carboxylic acid pyridin-3-ylamide]	3980	15.8	220 to 221
COc1ccc(N2CCOCC2)c2sc(C(=O)NCCc3ccsc3)nc12 [Example 54, 4-Methoxy-7-morpholin-4-yl-benzothiazole-2-carboxylic acid (2-thiophen-3-yl-ethyl)-amide]	1260	6.31	137 to 139
COc1ccccc1CNC(=O)c1nc2c(OC)ccc(N3CCOCC3)c2s1 [Example 25, 4-Methoxy-7-morpholin-4-yl-benzothiazole-2-carboxylic acid 2-methoxy-benzylamide]	7940	25.1	186 to 188
COc1ccc(N2CCOCC2)c2sc(C(=O)NC(C)Cc3cccs3)nc12 (stereo not drawn) [Example 81, 4-Methoxy-7-morpholin-4-yl-benzothiazole-2-carboxylic acid (1-methyl-2-thiophen-2-yl-ethyl)-amide]	200	1.26	127 to 129
COc1ccc(N2CCOCC2)c2sc(C(=O)NCCc3ccccc3Cl)nc12 [Example 63, 4-Methoxy-7-morpholin-4-yl-benzothiazole-2-carboxylic acid [2-(2-chloro-phenyl)-ethyl]-amide]	1000	20	141 to 143
COc1ccc(N2CCOCC2)c2sc(C(=O)NCc3cccc(Cl)c3)nc12 [Example 15, 4-Methoxy-7-morpholin-4-yl-benzothiazole-2-carboxylic acid 3-chloro-benzylamide]	2510	20	148 to 150
COc1ccc(N2CCOCC2)c2sc(C(N)=O)nc12 [Example 1, 4-Methoxy-7-morpholin-4-yl-benzothiazole-2-carboxylic Acid Amide]	3980	25.1	228 to 230
COc1ccc(N2CCOCC2)c2sc(C(=O)NC(C)c3nc(C)cs3)nc12 (stereo not drawn) [Example 77, 4-Methoxy-7-morpholin-4-yl-benzothiazole-2-carboxylic acid [1-(4-methyl-thiazol-2-yl)-ethyl]-amide]	501	5.01	175 to 176

Results, then the compound that gave them:

Ki [1] [nM]	Ki [2] [nM]	melting point [°C]	Structure (SMILES)
501	25.1	109 to 111	COc1ccc(N2CCOCC2)c2sc(C(=O)NCCc3cccc(Cl)c3)nc12 [Example 65, 4-Methoxy-7-morpholin-4-yl-benzothiazole-2-carboxylic acid [2-(3-chloro-phenyl)-ethyl]-amide]
1260	20	50 to 51	COc1ccc(N2CCOCC2)c2sc(C(=O)NCCc3ccccc3)nc12 [Example 6, 4-Methoxy-7-morpholin-4-yl benzothiazole-2-carboxylic acid phenethyl-amide]
6310	25.1	160 to 163	COc1ccc(N2CCOCC2)c2sc(C(=O)NCCc3cccnc3)nc12 [Example 55, 4-Methoxy-7-morpholin-4-yl-benzothiazole-2-carboxylic acid (2-pyridin-3-yl-ethyl)-amide]
1260	25.1	99 to 101	COc1cccc(CCNC(=O)c2nc3c(OC)ccc(N4CCOCC4)c3s2)c1 [Example 64, 4-Methoxy-7-morpholin-4-yl-benzothiazole-2-carboxylic acid [2-(3-methoxy-phenyl)-ethyl] amide]
1260	25.1	119 to 121	COc1ccc(N2CCOCC2)c2sc(C(=O)NCCc3cccc(C)c3)nc12 [Example 71, 4-Methoxy-7-morpholin-4-yl-benzothiazole-2-carboxylic acid (2-m-tolyl-ethyl)-amide]
1580	20	120 to 122	COc1ccc(N2CCOCC2)c2sc(C(=O)NCCc3cccc(F)c3)nc12 [Example 57, 4-Methoxy-7-morpholin-4-yl-benzothiazole-2-carboxylic acid [2-(3-fluoro-phenyl)-ethyl]-amide]
